In assay [1] the test system is recombinant guanylate cyclase reporter cell line. The experiment in a line: Effect on a recombinant guanylate cyclase reporter cell line. It counts as cell-based. The following applies: recombinant guanylate cyclase reporter cell line (Wunder et al. 2005). As for the experimental part: B-2. Effect on a Recombinant Guanylate Cyclase Reporter Cell Line
The cellular action of the inventive compounds is determined on a recombinant guanylate cyclase reporter cell line as described in F. Wunder et al., Anal. Biochem. 339, 104-112 (2005).

The test system of assay [2] is rabbit aorta rings. Kind of assay: Vasorelaxant action in vitro (phenylephrine-contracted rabbit aorta rings). The following applies: Oryctolagus cuniculus; concentration reducing the phenylephrine-induced contraction of rabbit aorta rings by 50%; DMSO 0.1%. How it is done: B-1. Vasorelaxant Action In Vitro
Rabbits are stunned by a blow to the neck and exsanguinated. The aorta is removed, freed from adhering tissue and divided into rings of width 1.5 mm, which are placed individually under prestress into 5 ml organ baths with carbogen-sparged Krebs-Henseleit solution at 37° C. having the following composition (each mM): sodium chloride 119; potassium chloride: 4.8; calcium chloride dihydrate: 1; magnesium sulfate heptahydrate: 1.4; potassium dihydrogenphosphate: 1.2; sodium hydrogencarbonate: 25; glucose: 10. The contractile force is determined with Statham UC2 cells, amplified and digitalized using A/D transducers (DAS-1802 HC, Keithley Instruments Munich), and recorded in parallel on linear recorders. To obtain a contraction, phenylephrine is added to the bath cumulatively in increasing concentration. After several control cycles, the substance to be studied is added in increasing dosage each time in every further run, and the magnitude of the contraction is compared with the magnitude of the contraction attained in the last preceding run. This is used to calculate the concentration needed to reduce the magnitude of the control value by 50% (IC50 value). The standard administration volume is […]; the DMSO content in the bath solution corresponds to 0.1%.

`CC1(C)C(=O)Nc2nc(-c3nn(Cc4ccccc4F)c4ncc(F)cc34)nc(N)c21` [Example 3, 4-amino-2-[5-fluoro-1-(2-fluorobenzyl)-1H-pyrazolo[3,4-b]pyridin-3-yl]-5,5-dimethyl-5,7-dihydro-6H-pyrrolo[2,3-d]pyrimidin-6-one]: the “MEC (minimal effective concentration)” value in assay [1] was determined as 0.001 µM. In assay [2], the IC50 (in general, the concentration that inhibits the measured activity by half) stood at 9.3 nM.
Regarding `CC1(C)C(=O)Nc2nc(-c3nn(Cc4ccccc4F)c4ncccc34)nc(N)c21` [Example 2, 4-amino-2-[1-(2-fluorobenzyl)-1H-pyrazolo[3,4-b]pyridin-3-yl]-5,5-dimethyl-5,7-dihydro-6H-pyrrolo[2,3-d]pyrimidin-6-one], the “MEC (minimal effective concentration)” value in assay [1] came to 0.001 µM. The compound also registered an IC50 in assay [2] of 48 nM.
For `Nc1nc(-c2nn(Cc3ccccc3F)c3ncccc23)nc2c1C1(CCOC1)C(=O)N2` (stereo not drawn) [Example 4, 4′-amino-2′-[1-(2-fluorobenzyl)-1H-pyrazolo[3,4-b]pyridin-3-yl]-4,5-dihydrospiro[furan-3,5′-pyrrolo[2,3-d]pyrimidine]-6′(7′H)-one] the same measures were 0.003 µM and 24 nM.

These data come from US8765769B2, “Ring-fused 4-aminopyrimidines and use thereof as stimulators of soluable guanylate cyclases” (Bayer Intellectual Property GmbH, priority 2010, dated 2014).
